Data: patent US11261190B2, “Dihydropyrimidine compounds and uses thereof in medicine” (SUNSHINE LAKE PHARMA CO., LTD., priority 2017, dated 2022)

How the values were obtained:
[1] = tested on: HBV; experiment: Anti HBV activity in vitro, viral DNA from HepG2.2.15 cells quantified by qPCR; format: cell-based; conditions: Hepatitis B virus, qPCR of viral DNA in supernatant, read-out: EC50 against HBV replication
Description: Test 1: Test Method of EC50 of Anti HBV
HBV Cell Line and Culture Conditions
HepG2.2.15 (SELLS, PNAS, 1987 and SELLS, JV, 1988) chromosomes have an integrated complete HBV genome, and stably express viral RNA and viral protein. HepG2.2.15 cells can secrete mature HBV particles, HBsAg and HBeAg to medium. HepG2.2.15 cells were cultured in DMEM containing 10% fetal bovine serum, 100 U/mL penicillin, 100 U/mL streptomycin, 1% non essential amino acid, 1 mM sodium pyruvate and 300 µg/mL G418.
Viral particles DNA secreted from HepG2.2.15 cells can be quantified by qPCR, and the effect of the compound on viral replication can be detected.
Test of Anti HBV Activity In Vitro
8000 HepG 2.2.15 cells per well were seeded into a 96-well plate, the plate was cultured at 37° C. and 5% CO2 for 3 days till the cells grew to full wells. Old liquid medium can be removed and replaced with new medium (200 μL) on day 0.
Formulating the compound and treating the cells in the experiment of anti virus: the compound was dissolved in DMSO to a concentration of 30 mM, and then the compound solution was diluted with DMSO to a concentration of […], and then eight dilutions at 4 fold were performed, the highest concentration is 800 μM. The serial diluted compound was added to the above plate at 1 μL per well, the highest final concentration in the experiment is 4 μM (200 fold dilution). TDF (tenofovir dipiroxil fumarate, Selleck, Cat S1400) has a highest concentration of 4 μM as a positive control. 1 μL of DMSO was added in to the positive control well at a final concentration of 0.5%, TDF was added in to the positive control well at a final concentration of 1 μM.
Detection of Viral Genomic DNA by qPCR
Primer: HBV-For-202, […]; HBV-Rev-315, […]. Copies of virus can be calculated using a standard curve plotted by using plasmid containing HBV genome and using SYBR Premix Ex Taq II Takara DRR081S kit and 1 μL cell culture supernatant as a template. EC50 values of the compound on viral replication were calculated by a four parametric nonlinear regression model using Graphpad Prism 5 software to manage concentration—viral copy number.

[2] = Cytotoxicity in HepG2.2.15 cells (CellTiter Glo); format: cell-based; conditions: human, highest concentration 150 μM
Description: Test 2: Cytotoxicity and Selectivity Index
Methods of Testing Cytotoxicity and Selectivity Index
The serial diluted compound was added to a 384 wells plate at 50 μL HepG2.2.15 cell per well (3000 cells per well), the highest final concentration in the experiment is 150 μM (200 fold dilution). The plate was cultured at 37° C. in an incubator with C02 for 4 days, and cytotoxicity of the compound was detected using CellTiter Glo agent.
The cytotoxicity of the compound was calculated using the following formulate, cytotoxicity (%)=100−(detection value/mean of DMSO control wells values×100). CC50 values were calculated by a four parametric nonlinear regression model using Graphpad Prism 5 software to manage concentration−cytotoxicity (%). […]

SMILES	EC50 [1] [nM]	CC50 at 4 days [2] [µM]
COCCN1C[C@@H](N2C[C@@H]3CN(CC4=C(C(=O)OC)[C@H](c5ccc(F)cc5Cl)N=C(c5nccs5)N4)CCN3C2=O)C[C@@H]1C(=O)O [Example 7, (2R,4S)-4-((S)-7-(((R)-6-(2-chloro-4-fluorophenyl)-5-(methoxycarbonyl)-2-(thiazol-2-yl)-3,6-dihydropyrimidin-4-yl)methyl)-3-oxohexahydroimidazo[1,5-a]pyrazin-2(3H)-yl)-1-(2-methoxyethyl)pyrrolidine-2-carboxylic Acid]	56	
COC(=O)C1=C(CN2CCN3C(=O)N([C@H](Cc4ccccc4)C(=O)O)CC3C2)NC(c2nccs2)=N[C@H]1c1ccc(F)cc1Cl (stereo partly drawn) [Example 11, (2R)-2-(7-(((R)-6-(2-chloro-4-fluorophenyl)-5-(methoxycarbonyl)-2-(thiazol-2-yl)-3,6-dihydropyrimidin-4-yl)methyl)-3-oxohexahydroimidazo[1,5-a]pyrazin-2(3H)-yl)-3-phenylpropionic Acid]	32	
COC(=O)C1=C(CN2CCN3C(=O)N(C(CC(=O)O)c4ccccc4)C[C@@H]3C2)NC(c2nccs2)=N[C@H]1c1ccc(F)cc1Cl (stereo partly drawn) [Example 12, 3-((S)-7-(((R)-6-(2-chloro-4-fluorophenyl)-5-(methoxycarbonyl)-2-(thiazol-2-yl)-3,6-dihydropyrimidin-4-yl)methyl)-3-oxohexahydroimidazo[1,5-a]pyrazin-2(3H)-yl)-3-phenylpropionic Acid]	37	
COC(=O)C1=C(CN2CCN3C(=O)N(c4ccc(C(C)(C)C(=O)O)cc4)C[C@@H]3C2)NC(c2nccs2)=N[C@H]1c1ccc(F)cc1Cl [Example 15, 2-(4-((S)-7-(((R)-6-(2-chloro-4-fluorophenyl)-5-(methoxycarbonyl)-2-(thiazol-2-yl)-3,6-dihydropyrimidin-4-yl)methyl)-3-oxohexahydroimidazo[1,5-a]pyrazin-2(3H)-yl)phenyl)-2-methylpropionic Acid]	5	> 150
COC(=O)C1=C(CN2CCN3C(=O)N(c4ccc(C(CC(=O)O)NC(=O)OC(C)(C)C)cc4)C[C@@H]3C2)NC(c2nccs2)=N[C@H]1c1ccc(F)cc1Cl (stereo partly drawn) [Example 16, 3-((tert-butoxycarbonyl)amino)-3-(4-((S)-7-(((R)-6-(2-chloro-4-fluorophenyl)-5-(methoxycarbonyl)-2-(thiazol-2-yl)-3,6-dihydropyrimidin-4-yl)methyl)-3-oxohexahydroimidazo[1,5-a]pyrazin-2 (3H)-yl)phenyl)propanoic Acid]	14	> 150
COC(=O)C1=C(CN2CCN3C(=O)N(c4ccc(CC(C)C(=O)O)cc4)C[C@@H]3C2)NC(c2nccs2)=N[C@H]1c1ccc(F)cc1Cl (stereo partly drawn) [Example 18, 3-(4-((S)-7-(((R)-6-(2-chloro-4-fluorophenyl)-5-(methoxycarbonyl)-2-(thiazol-2-yl)-3,6-dihydropyrimidin-4-yl)methyl)-3-oxohexahydroimidazo[1,5-a]pyrazin-2(3H)-yl)phenyl)-2-methylpropionic Acid]	4	> 150
COC(=O)C1=C(CN2CCN3C(=O)N(c4nc(CCC(=O)O)cs4)C[C@@H]3C2)NC(c2nccs2)=N[C@H]1c1ccc(F)cc1Cl [Example 20, 3-(2-((S)-7-(((R)-6-(2-chloro-4-fluorophenyl)-5-(methoxycarbonyl)-2-(thiazol-2-yl)-3,6-dihydropyrimidin-4-yl)methyl)-3-oxohexahydroimidazo[1,5-a]pyrazin-2(3H)-yl)thiazol-4-yl)propionic Acid]	5	> 150
COC(=O)C1=C(CN2CCN3C(=O)N(c4ccc(CCC(=O)O)cn4)C[C@@H]3C2)NC(c2nccs2)=N[C@H]1c1ccc(F)cc1Cl [Example 35, 3-(6-((S)-7-(((R)-6-(2-chloro-4-fluorophenyl)-5-(methoxycarbonyl)-2-(thiazol-2-yl)-3,6-dihydropyrimidin-4-yl)methyl)-3-oxohexahydroimidazo[1,5-a]pyrazin-2(3H)-yl)pyridin-3-yl)propionic Acid]	8	
COC(=O)C1=C(CN2CCN3C(=O)N(c4cncc(CCC(=O)O)c4)C[C@@H]3C2)NC(c2nccs2)=N[C@H]1c1ccc(F)cc1Cl [Example 36, 3-(5-((S)-7-(((R)-6-(2-chloro-4-fluorophenyl)-5-(methoxycarbonyl)-2-(thiazol-2-yl)-3,6-dihydropyrimidin-4-yl)methyl)-3-oxohexahydroimidazo[1,5-a]pyrazin-2(3H)-yl)pyridin-3-yl)propionic Acid]		> 150
COC[C@@H]1[C@H]2CN(c3ccc(CCC(=O)OC)cc3)C(=O)N2CCN1CC1=C(C(=O)OC)[C@H](c2ccc(F)cc2Cl)N=C(c2nccs2)N1 [Example 50B]	8	
COC[C@H]1[C@@H]2CN(c3ccc(CCC(=O)O)cc3)C(=O)N2CCN1CC1=C(C(=O)OC)[C@H](c2ccc(F)cc2Cl)N=C(c2nccs2)N1 [Example 51A]		> 150
CCOC(=O)C1=C(CN2CCN3C(=O)N(c4ccc(/C=C(\C)C(=O)O)cc4)C[C@@H]3C2)NC(c2nccs2)=N[C@H]1c1ccc(F)cc1Br [Example 55, (E)-3-(4-((S)-7-(((R)-6-(2-bromo-4-fluorophenyl)-5-(ethoxycarbonyl)-2-(thiazol-2-yl)-3,6-dihydropyrimidin-4-yl)methyl)-3-oxohexahydroimidazo[1,5-a]pyrazin-2(3H)-yl)phenyl)-2-methylacrylic Acid]	9	
CCOC(=O)C1=C(CN2CCN3C(=O)N(c4ccc(/C(C)=C/C(=O)O)cc4)C[C@@H]3C2)NC(c2nccs2)=N[C@H]1c1ccc(F)cc1Br [Example 56, (E)-3-(4-((S)-7-(((R)-6-(2-bromo-4-fluorophenyl)-5-(ethoxycarbonyl)-2-(thiazol-2-yl)-3,6-dihydropyrimidin-4-yl)methyl)-3-oxohexahydroimidazo[1,5-a]pyrazin-2(3H)-yl)phenyl)-2-butenoic Acid]	12	
CCOC(=O)C1=C(CN2CCN3C(=O)N(c4ccc(CCC(=O)O)cc4)C[C@@H]3[C@H]2COC)NC(c2nccs2)=N[C@H]1c1ccc(F)cc1Br [Example 57, 3-(4-((8S,8aR)-7-(((R)-6-(2-bromo-4-fluorophenyl)-5-(ethoxycarbonyl)-2-(thiazol-2-yl)-3,6-dihydropyrimidin-4-yl)methyl)-8-(methoxymethyl)-3-oxohexahydroimidazo[1,5-a]pyrazin-2(3H)-yl)phenyl)propionic Acid]	12	
COC(=O)CCc1ccc(N2C[C@@H]3[C@@H](CO)N(CC4=C(C(=O)OC)[C@H](c5ccc(F)cc5Cl)N=C(c5nccs5)N4)CCN3C2=O)cc1 [Example 58B]	14	
COC(=O)C1=C(CN2CCN3C(=O)N(c4ccc(CCC(=O)O)cc4)C[C@H]3[C@@H]2CO)NC(c2nccs2)=N[C@H]1c1ccc(F)cc1Cl [Example 59A]		> 150
COC[C@@H]1[C@H]2CN(c3ccc(C(C)(C)C(=O)OC)cc3)C(=O)N2CCN1CC1=C(C(=O)OC)[C@H](c2ccc(F)cc2Cl)N=C(c2nccs2)N1 [Example 60B]	4	
COC[C@@H]1[C@H]2CN(c3ccc(C(C)(C)C(=O)O)cc3)C(=O)N2CCN1CC1=C(C(=O)OC)[C@H](c2ccc(F)cc2Cl)N=C(c2nccs2)N1 [Example 61B]	5	
